Laboratory results: patent publication US20080004329A1, “Pharmaceutical compositions of ropinirole and methods of use thereof” (priority 2006, published 2008)

Key:
[1] = Titration with NaOH for the experimental ionization profile in a hydroalcoholic base; type: physicochemical; conditions: hydroalcoholic vehicle (ethanol 45%, propylene glycol 20%, water 25.58%), not gellified; read-out: apparent pKa from the experimental ionization profile
From the text: The following formulation was used for titration to determine the experimental ionization profile of ropinirole in a hydroalcoholic base: Ropinirole hydrochloride* 3.42% w/w, myristyl alcohol 1.00% w/w, diethylene glycol monoethylether 5.00% w/w, propylene glycol 20.00% w/w, absolute ethanol 45.00% w/w, and purified water 25.58% w/w (total 100; * ropinirole HCl 3.42% (MW=296.84) corresponds to ropinirole free base 3% (MW=260.38), ratio 1.14). The formulation was not gellified.
The ropinirole HC1 solution was titrated with NaOH 0.1 M solution. The solvent was the same as the formulation, in order to keep a constant composition. NaOH was chosen so as to limit dilution of the titrated formulation; but no dilution correction was made. The formulation was titrated by 0.5-1 mL increments where the pH change was small. Increments were reduced to 0.1 mL near the equivalence point. The pH was monitored with a glass electrode (Mettler Toledo InLab 432, Mettler-Toledo, Inc., Columbus, Ohio), and recorded with a Mettler Toledo MP. 230 pH meter (Mettler-Toledo, Inc., Columbus, Ohio).
Based on the titration curve, the ionization rate [BH] was calculated according to Henderson-Hasselbalch equation for weak base: […]

[2] = human
Procedure: In vitro data can be extrapolated to in vivo conditions in order to evaluate the gel dose for bioequivalence to ropinirole oral absorption. […] Therefore, an intermediate oral dose of 6 mg/day with BA=50% delivers a systemic dose of 3 mg/day. […] This corresponds to a daily dose of 9.5 mg ropinirole HCl (equivalent to 8.3 mg free base).
Based on these pharmacokinetic parameters, the daily input rate can be estimated using the following equation: Ka=CL×Cp, where Ka is the daily input rate (absorption rate), CL the drug plasma clearance, and Cp the plasma concentration.
Scaled to the clinical daily input rate, the required skin surface can be determined using the following equation: S=Ka/JSS, wherein S is the application skin surface area, and JSS is the in vitro steady-state drug flux.
Alternatively, the gel amount could be increased by 3.7 times (1 g instead of 0.3 g), and be applied to a 3.7 times larger skin area (185 cm instead of 50 cm^2).
This corresponds to a daily dose of 15 mg ropinirole HCl (equivalent to 13 mg free base).

[3] = cited from earlier work
[4] = In vitro permeation, Franz cells, cadaver skin finite dose technique (Example 1); type: in vitro ADME, human
Procedure: The in vitro human cadaver skin model has proven to be a valuable tool for the study of percutaneous absorption and the determination of topically applied drugs. The model uses human cadaver skin mounted in specially designed diffusion cells that allow the skin to be maintained at a temperature and humidity that match typical in vivo conditions (Franz, T. J., “Percutaneous absorption: on the relevance of in vitro data,” J. Invest Dermatol 64:190-195 (1975)). A finite dose (for example: 4-7 mg/cm^2) of formulation is applied to the outer surface of the skin and drug absorption is measured by monitoring its rate of appearance in the receptor solution bathing the inner surface of the skin. Data defining total absorption, rate of absorption, as well as skin content can be accurately determined in this model. The method has historic precedent for accurately predicting in vivo percutaneous absorption kinetics (Franz, T. J., “The finite dose technique as a valid in vitro model for the study of percutaneous absorption in man,” In: Skin: Drug Application and Evaluation of Environmental Hazards, Current Problems in Dermatology, vol. 7, G. Simon, Z. Paster, M Klingberg, M. Kaye (Eds), Basel, Switzerland, S. Karger, pages 58-68 (1978)).
Percutaneous absorption was measured using the in vitro cadaver skin finite dose technique. Cryo-preserved, human cadaver trunk skin was obtained from a skin bank and stored in water-impermeable plastic bags at <−70° C. until used.
Prior to the experiment, skin was removed from the bag, placed in approximately 37° C. water for five minutes, and then cut into sections large enough to fit on 1 cm^2 Franz Cells (Crown Glass Co., Somerville, N.J.). Briefly, skin samples were prepared as follows. A small volume of phosphate buffered saline (PBS) was used to cover the bottom of the Petri dishes. Skin disks generally depleted of fat layers were placed in the Petri dishes for hydration. A Stadie-Riggs manual tissue microtome was used for slicing excised skin samples. Approximately 2 mL of PBS was placed into the middle cavity of the microtome as slicing lubricant. Skin disks were placed, dermal side up, into the middle cavity of the microtome. Filter paper was soaked with PBS, inserted in the cavity just above the skin disk. The filter paper prevented the dermis from sliding onto the top of the cutting block and helped to insure more precise cutting. When all three blades of the microtome were assembled, the microtome was turned into the upright position. Using a regular and careful sawing motion the skin tissue was sliced in cross-section. The skin tissue slice was removed with the tweezers and placed in the Petri dish for hydration. Each skin slice was wrapped in Parafilm® (Pechiney Plastic Packaging, Inc., Chicago, Ill.) laboratory film and placed in water-impermeable plastic bags. Skin samples were identified by the donor and the provider code. If further storage was necessary, the skin slices were stored in the freezer at −20° C. until further use.
The epidermal cell (chimney) was left open to ambient laboratory conditions. The dermal cell was filled with receptor solution. Receptor solution for in vitro skin permeations was typically an isotonic saline at physiological pH. The receptor solution may also contain a drug solubilizer, for example, to increase lipophilic drug solubility in the receptor phase. […]

[5] = water at 20° C.; cited from earlier work
guinea pigs = assay: Skin sensitization, induction and challenge; type: in vivo; conditions: guinea pigs induced (with and without Freund's Complete Adjuvant) and challenged with 5% ropinirole HCl
[6] = EtOH(45)/Water(40)/PG(10), 5% drug

SMILES	pKa [1]	Ka, daily input rate (absorption rate), Ka=CL×Cp [2]	Body clearance ([3]; REQUIP Prescribing Information)	maximum plasma levels (Cmax) ([3]; repeated oral administration, 6 mg/day in 3 divided doses, steady state (Taylor et al.))	skin permeation characteristics [4, 6]	peak flux ([4]; EtOH(45)/Water(40)/PG(10), 5% drug, pH 9.5-10.0)	ropinirole remained in the epidermis ([4]; after 48 hours)	Bioavailability in the receptor chamber fluid ([4]; percent dose recovered in receptor fluid)	solubility in water [5]	sensitization category (guinea pigs)
CCCN(CCC)CCc1cccc2c1CC(=O)N2 [ropinirole]	8	347.8 µg/h	about 47 L/h	7.4 ng/mL	–	–	–	–	–	–
CCCN(CCC)CCc1cccc2c1CC(=O)N2 [ropinirole free base]	–	–	–	–	good permeation characteristics	3.5 μg/cm^2/hr	Approximately 20%	about 40%	–	–
CCCN(CCC)CCc1cccc2c1CC(=O)N2.Cl [Ropinirole hydrochloride, 4-[2-(dipropylamino)-ethyl]-1,3-dihydro-2H-indol-2-one monohydrochloride]	–	–	–	–	did not permeate well	–	–	–	133 mg/mL	mild sensitizer
